For test [1], the target named is T1, Porcine pancreatic elastase (Sus scrofa, UniProt P00772).
T1 construct: gene CELA1; native enzyme from pancreas (commercial)
The test is described as follows: N-succinyl-Ala-Ala-Ala-p-nitroanilide hydrolysis, absorbance […] nm. The test is classed as biochemical.

Test [2] has as its target T2, Collagenase from Clostridium histolyticum (ChC).
T2 construct: gene colG
Briefly: FALGPA hydrolysis, microplate absorbance. The test is classed as biochemical, Hathewaya histolytica. The note with it: 50 mM tricine pH 7.5, 400 mM NaCl, 10 mM CaCl2; 15 min preincubation; FALGPA substrate.

The target in test [3] is T3, mushroom tyrosinase.
T3 construct: gene PPO1
The test is described as follows: dopachrome formation, absorbance […] nm. The test is classed as biochemical. The note with it: L-tyrosine substrate (0.85 mM solution); phosphate pH 6.8; 15 min preincubation at 25 °C.

≈ marks a conversion by molar mass, not a printed value.

T1 sequence (P00772 27-266): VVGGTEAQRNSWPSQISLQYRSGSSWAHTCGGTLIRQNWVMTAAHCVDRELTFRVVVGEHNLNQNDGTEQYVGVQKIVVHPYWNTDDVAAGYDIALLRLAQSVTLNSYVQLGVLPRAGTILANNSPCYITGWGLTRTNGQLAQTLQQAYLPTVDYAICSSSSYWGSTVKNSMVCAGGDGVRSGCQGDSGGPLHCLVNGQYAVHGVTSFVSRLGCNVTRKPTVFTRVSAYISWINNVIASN

With `O=C(O[C@@H]1Cc2c(O)cc(O)cc2O[C@@H]1c1cc(O)c(O)c(O)c1)c1cc(O)c(O)c(O)c1` [epigallocatechin gallate], the IC50 (commonly the midpoint of a concentration-inhibition curve) is 22.4 µM in test [1], 1.56 µg/mL (≈ 3.4 µM) in test [2] and 14.37 µg/mL (≈ 31.3 µM) in test [3].

The record behind these values is paper PMC8066341, “Chemical Profiles, Anticancer, and Anti-Aging Activities of Essential Oils of Pluchea dioscoridis (L.) DC. and Erigeron bonariensis L” (Plants, 2021).
